Experimental data from patent publication US6177592A, “Compounds” (priority 1997, dated 2001).
Entries after “also recorded” stand apart in the source; their conditions may differ.

Assays:
[1] = system: HL-60 cells; test: Apoptosis in HL-60 cells (apoptic bodies, DNA fragmentation); format: cell-based, human; settings: for apoptic bodies in the cells: at each of the cell-growth-inhibiting concentrations
Protocol: (1) Each 0.5 ml of 0.2 mM CM, 0.8 mM CM or 1.6 mM CM was added to 4.5 ml of RPMI 1640 medium containing 10% of fetal calf serum and 2.5×10^5HL-60 cells (promyelocytic leukemia cell) (ATCC CCL-240) and incubated at 37° C. for 24 hours or 48 hours in the presence of 5% carbon dioxide gas and the numbers of viable cells were measured.
(§1) (2) To each of the wells of a 96-well microtiter plate was added 8, 40, 200 or 1000 μM aqueous solution of GM or 10 μl of water as a control. HL-60 (ATCC CCL-240) was suspended in an RPMI 1640 medium containing 10% of fetal calf serum to make the concentration 5×10^4 cells/ml and each 90 μl thereof was placed in each well of the above-mentioned microtiter plate and incubated at 37° C. for 48 hours in the presence of 5% carbon dioxide. Incubation was conducted for four hours more after addition of 10 μl of a solution (5 mg/ml) of 3-(4,5-dimethylthiazol-2-yl)-2,5-diphenyltetrzolium bromide (MTT; manufactured by Sigma) in a phosphate-buffered saline solution and the state of growth of the cells was observed under a microscope. Further, 100 μl of 2-propanol containing 0.04N hydrochloric acid was added followed by stirring and an absorbance at 590 nm was measured.
(4) HL-60 cells (ATCC CCL240) which were incubated at 37° C. in an RPMI 1640 medium (manufactured by Nissui) containing 10% of fetal calf serum (manufactured by Gibco) treated at 56° C. for 30 minutes were suspended in the above medium to make the concentration 2.5×10^5cells/4.5 ml. To this suspension was added 0.5 ml of 100 μM aqueous solution of GM (final concentration: 10 μM) followed by incubating at 37° C. in the presence of 5% carbon dioxide gas for 24 hours, 48 hours and 72 hours.
(§2) (5) To each well of the 96-well microtiter plate was added 4.12, 12.3, 37.0, 111, 333 or 1000 μM aqueous solution of GD or 10 μl of water as a control. HL-60 (ATCC CCL-240) was suspended in an RPMI 1640 medium containing 10% of fetal calf serum to make the concentration 5×10^4 cells/ml and each 90 μl thereof was placed in each well of the above-mentioned microtiter plate followed by incubating at 37° C. for 48 hours in the presence of 5% carbon dioxide gas. The incubation was conducted for four hours more after addition of 10 μl of 5 mg/ml solution of 3-(4,5-dimethylthiazol-2-yl)-2,5-diphenyltetrazolium bromide (MTT; manufactured by Sigma) in a phosphate-buffered saline solution and the state of growth of the cells was observed under a microscope. In the meanwhile, 100 μl of 2-propanol containing 0.04N HCl was added followed by well stirring and the absorbance at 590 nm was measured.

[2] = system: Sarcoma-180; test: Sarcoma-180/ICR mice macrobiotic effect; format: in vivo
[3] = system: EAC; test: EAC/DDY mice macrobiotic effect; format: in vivo
[4] = system: IMC; test: IMC/CDF1 mice macrobiotic effect; format: in vivo
[5] = system: mouse leukemia P-388; test: Mouse leukemia P-388 survival (macrobiotic effect) in DBA/2 mice; format: in vivo; settings: 10 mg/kg/day i.p., five days
Protocol: GM was diluted with a physiological saline solution to a predetermined concentration and subjected to the following tests.
(2) Mouse leukemia P-388 (1.1×10^6 cells/mouse) was intraperitoneally injected to female DBA/2 mice (body weight: about 20 g) of seven weeks age. After that, GM, CM, GD or CD (10 mg/kg/day) was intraperitoneally injected for consecutive five clays. In the meanwhile, a physiological saline solution was intraperitoneally injected to the control group by the same manner. In the two group each consisting of eight mice, survived numbers, average survived days and macrobiotic rate of the mice were calculated.

[6] = system: HL-60 cells; test: MTT growth inhibition of HL-60; format: cell-based, human; settings: Homo sapiens, HL-60, 48 hours; for activity at 10 µM / activity at 20 µM / activity at 40 µM: read-out: degree of cell growth (ratio of absorbance at 590 nm of sample-added section to control)
Protocol: as §1
(3) To each well of the 96-well microtiter plate was added 100, 200 or 400 μM aqueous solution of GM or CM or 10 μl of water as a control and the inhibition activity of growth of HL-60 was measured by the same method as mentioned in Example 5-(2). The degree of cell growth was, however, expressed in terms of the ratio (%) of the absorbance at 590 nm of the sample-added section to that of the water-added section (the control).
as §2
(6) Cyclopentenone and L-cysteine hydrochloride were dissolved in a phosphate buffered saline solution (pH 7.2) to make their concentrations 55 mM and 80 mM, respectively and made to react at 37° C. for 15 minutes at pH 7.2. Apart of the reaction solution was analyzed by a reversed phase HPLC using a column of TSK gel ODS-80Ts (4.6 mm×250 mm; manufactured by Tosoh)at the flow rate of 1 ml/minute using 0.1% aqueous solution of trifluoroacetic acid as a mobile phase whereupon no cyclopentenone was detected. This reaction solution was a solution containing 55 mM of CD.
Degree of cell growth was, however, expressed in terms of the ratio (%) of the absorbance at 590 nm of the section to which the sample was added to that of the control where water was added.

Q: `N[C@@H](CSC1C=C(O)C(=O)C1)C(=O)O` (stereo partly drawn) [CM] was tested. Which “apoptic bodies in the cells” value [1] did it give?
A: Its value is “apoptic bodies were detected”.

Q: What about the macrobiotic effect [2] of the same compound?
A: Its macrobiotic effect is “same macrobiotic effect”.

Q: What about the macrobiotic effect [3] of the same compound?
A: Its macrobiotic effect is “same macrobiotic effect”.

Q: And the macrobiotic effect [4]?
A: Its macrobiotic effect is “same macrobiotic effect”.

Q: What about the “macrobiotic effect (average survived days)” value [5] of the same compound?
A: The value was “significant macrobiotic effect”.

Q: What about the activity at 10 µM [6] of the same compound?
A: The activity at 10 µM was 48.9%.

Q: What about the activity at 20 µM [6] of the same compound?
A: The activity at 20 µM was 16.1%.

Q: And the activity at 40 µM [6]?
A: The activity at 40 µM was 2.8%.

Q: For `N[C@@H](CCC(=O)N[C@@H](CSC1C=C(O)C(=O)C1)C(=O)NCC(=O)O)C(=O)O` (stereo partly drawn) [GM, 2-hydroxy-4-glutathion-S-yl-2-cyclopenten-1-one], which “fragmentation of DNA into a chromatin unit” value ([1]; 10 μM GM, agarose gel electrophoresis) is on record?
A: The value was “fragmentation of DNA into a chromatin unit was observed”.

Q: And the “apoptic bodies in the cells” value [1]?
A: Its value is “apoptic bodies were formed in the cells; also recorded: aggregation of nuclei, reduction in size of the cells and production of apoptic bodies were detected”.

Q: And the macrobiotic effect [2]?
A: The macrobiotic effect was “same macrobiotic effect”.

Q: What about the macrobiotic effect [3] of the same compound?
A: Its macrobiotic effect is “same macrobiotic effect”.

Q: What about the macrobiotic effect [4] of the same compound?
A: The macrobiotic effect was “same macrobiotic effect”.

Q: And the “macrobiotic effect (average survived days)” value [5]?
A: The value was “significant macrobiotic effect”.

Q: What about the activity at 10 µM [6] of the same compound?
A: Its activity at 10 µM is 14.8%.

Q: What about the activity at 20 µM [6] of the same compound?
A: Its activity at 20 µM is 1.8%.

Q: What about the activity at 40 µM [6] of the same compound?
A: The activity at 40 µM was 3.2%.

Q: What about the IC100 ([6]; MTT, final concentration, read-out: concentration at which growth of HL-60 cells was completely inhibited) of the same compound?
A: Its IC100 is 4 µM.
